Test results as given in the NIST ThermoML archive (doi:10.1016/j.jct.2013.06.009).
Numbers after ± are expanded uncertainties.

Experiment: mn = molality of the nth substance listed, in mol/kg
Settings: 101.33 kPa, Liquid; for viscosity: Capillary tube (Ostwald / Ubbelohde) method; for mass density: Vibrating tube method

CO/N=C(\C(=O)N[C@@H]1C(=O)N2C(C(=O)O)=C(C[N+]3(C)CCCC3)CS[C@H]12)c1csc(N)n1.Cl.[Cl-] [cefepime dihydrochloride] + O
Settings	mass density [kg/m3]	viscosity [mPa·s]
278.15 K, m1 = 0.01005	1002 ± 0.21	1.544 ± 0.032
278.15 K, m1 = 0.02017	1004.01 ± 0.21	1.57 ± 0.033
278.15 K, m1 = 0.0304	1006.02 ± 0.21	1.597 ± 0.033
278.15 K, m1 = 0.05103	1009.98 ± 0.21	1.649 ± 0.034
278.15 K, m1 = 0.07222	1013.97 ± 0.21	1.705 ± 0.036
278.15 K, m1 = 0.09333	1017.86 ± 0.21	1.766 ± 0.037
278.15 K, m1 = 0.1154	1021.84 ± 0.21	1.824 ± 0.038
278.15 K, m1 = 0.1343	1025.19 ± 0.21	1.88 ± 0.039
278.15 K, m1 = 0.1521	1028.29 ± 0.21	1.937 ± 0.041
283.15 K, m1 = 0.01005	1001.73 ± 0.21	1.324 ± 0.028
283.15 K, m1 = 0.02017	1003.73 ± 0.21	1.348 ± 0.028
283.15 K, m1 = 0.0304	1005.73 ± 0.21	1.371 ± 0.029
283.15 K, m1 = 0.05103	1009.67 ± 0.21	1.416 ± 0.03
283.15 K, m1 = 0.07222	1013.62 ± 0.21	1.463 ± 0.031
283.15 K, m1 = 0.09333	1017.47 ± 0.21	1.517 ± 0.032
283.15 K, m1 = 0.1154	1021.4 ± 0.21	1.566 ± 0.033
283.15 K, m1 = 0.1343	1024.71 ± 0.21	1.613 ± 0.034
283.15 K, m1 = 0.1521	1027.79 ± 0.21	1.663 ± 0.035
288.15 K, m1 = 0.01005	1001.11 ± 0.21	1.148 ± 0.024
288.15 K, m1 = 0.02017	1003.1 ± 0.21	1.17 ± 0.025
288.15 K, m1 = 0.0304	1005.08 ± 0.21	1.19 ± 0.025
288.15 K, m1 = 0.05103	1008.98 ± 0.21	1.228 ± 0.026
288.15 K, m1 = 0.07222	1012.89 ± 0.21	1.269 ± 0.027
288.15 K, m1 = 0.09333	1016.7 ± 0.21	1.316 ± 0.028
288.15 K, m1 = 0.1154	1020.61 ± 0.21	1.359 ± 0.028
288.15 K, m1 = 0.1343	1023.89 ± 0.21	1.4 ± 0.029
288.15 K, m1 = 0.1521	1026.93 ± 0.21	1.443 ± 0.03
293.15 K, m1 = 0.01005	1000.2 ± 0.21	1.013 ± 0.021
293.15 K, m1 = 0.02017	1002.18 ± 0.21	1.031 ± 0.022
293.15 K, m1 = 0.0304	1004.15 ± 0.21	1.049 ± 0.022
293.15 K, m1 = 0.05103	1008.03 ± 0.21	1.082 ± 0.023
293.15 K, m1 = 0.07222	1011.91 ± 0.21	1.12 ± 0.023
293.15 K, m1 = 0.09333	1015.7 ± 0.21	1.161 ± 0.024
293.15 K, m1 = 0.1154	1019.57 ± 0.21	1.199 ± 0.025
293.15 K, m1 = 0.1343	1022.82 ± 0.21	1.235 ± 0.026
293.15 K, m1 = 0.1521	1025.83 ± 0.21	1.273 ± 0.027
298.15 K, m1 = 0.01005	999.04 ± 0.21	0.899 ± 0.019
298.15 K, m1 = 0.02017	1001.01 ± 0.21	0.9159 ± 0.019
298.15 K, m1 = 0.0304	1002.97 ± 0.21	0.9314 ± 0.019
298.15 K, m1 = 0.05103	1006.84 ± 0.21	0.9593 ± 0.02
298.15 K, m1 = 0.07222	1010.7 ± 0.21	0.9939 ± 0.021
298.15 K, m1 = 0.09333	1014.46 ± 0.21	1.029 ± 0.022
298.15 K, m1 = 0.1154	1018.29 ± 0.21	1.065 ± 0.022
298.15 K, m1 = 0.1343	1021.51 ± 0.21	1.096 ± 0.023
298.15 K, m1 = 0.1521	1024.5 ± 0.21	1.13 ± 0.024
303.15 K, m1 = 0.01005	997.63 ± 0.21	0.8046 ± 0.017
303.15 K, m1 = 0.02017	999.59 ± 0.21	0.8192 ± 0.017
303.15 K, m1 = 0.0304	1001.53 ± 0.21	0.8325 ± 0.017
303.15 K, m1 = 0.05103	1005.38 ± 0.21	0.8581 ± 0.018
303.15 K, m1 = 0.07222	1009.21 ± 0.21	0.8888 ± 0.019
303.15 K, m1 = 0.09333	1012.95 ± 0.21	0.9175 ± 0.019
303.15 K, m1 = 0.1154	1016.75 ± 0.21	0.9513 ± 0.02
303.15 K, m1 = 0.1343	1019.94 ± 0.21	0.9813 ± 0.021
303.15 K, m1 = 0.1521	1022.9 ± 0.21	1.01 ± 0.021
308.15 K, m1 = 0.01005	996.01 ± 0.21	0.7235 ± 0.015
308.15 K, m1 = 0.02017	997.96 ± 0.21	0.7352 ± 0.015
308.15 K, m1 = 0.0304	999.9 ± 0.21	0.7465 ± 0.016
308.15 K, m1 = 0.05103	1003.71 ± 0.21	0.7718 ± 0.016
308.15 K, m1 = 0.07222	1007.53 ± 0.21	0.7974 ± 0.017
308.15 K, m1 = 0.09333	1011.24 ± 0.21	0.8261 ± 0.017
308.15 K, m1 = 0.1154	1015.02 ± 0.21	0.8553 ± 0.018
308.15 K, m1 = 0.1343	1018.18 ± 0.21	0.881 ± 0.018
308.15 K, m1 = 0.1521	1021.12 ± 0.21	0.904 ± 0.019
313.15 K, m1 = 0.01005	994.18 ± 0.21	0.6561 ± 0.014
313.15 K, m1 = 0.02017	996.12 ± 0.21	0.6652 ± 0.014
313.15 K, m1 = 0.0304	998.04 ± 0.21	0.6753 ± 0.014
313.15 K, m1 = 0.05103	1001.85 ± 0.21	0.6976 ± 0.015
313.15 K, m1 = 0.07222	1005.64 ± 0.21	0.7193 ± 0.015
313.15 K, m1 = 0.09333	1009.33 ± 0.21	0.7448 ± 0.016
313.15 K, m1 = 0.1154	1013.07 ± 0.21	0.7705 ± 0.016
313.15 K, m1 = 0.1343	1016.22 ± 0.21	0.7947 ± 0.017
313.15 K, m1 = 0.1521	1019.14 ± 0.21	0.8162 ± 0.017
